According to PubChem BioAssay (NCI):
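Grown in 96-well plates, cells were treated for 48 hours with each compound at five concentrations. Insufficient inhibition: endpoint recorded as highest concentration tested. TGI denotes the concentration required for complete inhibition of growth.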

What was measured:
Assay in all cases: NCI anticancer screen, dose series, 48 h
MOLT-4 leukemia = tested on: MOLT-4 leukemia
OVCAR-3 ovarian = tested on: OVCAR-3 ovarian
NCI-H23 lung = tested on: NCI-H23 lung
U251 CNS = tested on: U251 CNS
HOP-18 NSCLC = tested on: HOP-18 NSCLC
ACHN renal = tested on: ACHN renal
NCI-H522 lung = tested on: NCI-H522 lung
DLD-1 colon = tested on: DLD-1 colon
NCI-H460 lung = tested on: NCI-H460 lung
RXF 393 renal = tested on: RXF 393 renal
SF-295 CNS = tested on: SF-295 CNS
DMS 273 small cell lung = tested on: DMS 273 small cell lung
SNB-75 CNS = tested on: SNB-75 CNS
M14 melanoma = tested on: M14 melanoma
SK-MEL-5 melanoma = tested on: SK-MEL-5 melanoma
A498 renal = tested on: A498 renal
OVCAR-4 ovarian = tested on: OVCAR-4 ovarian
RPMI-8226 leukemia = tested on: RPMI-8226 leukemia
IGROV1 ovarian = tested on: IGROV1 ovarian
A549 NSCLC = tested on: A549 NSCLC
HCC-2998 colon = tested on: HCC-2998 colon
OVCAR-5 ovarian = tested on: OVCAR-5 ovarian
MALME-3M melanoma = tested on: MALME-3M melanoma
HOP-92 NSCLC = tested on: HOP-92 NSCLC
SNB-78 CNS = tested on: SNB-78 CNS
SN12C renal = tested on: SN12C renal
CAKI-1 renal = tested on: CAKI-1 renal
UO-31 renal = tested on: UO-31 renal
SF-539 CNS = tested on: SF-539 CNS
786-0 renal = tested on: 786-0 renal
HCT-116 colon = tested on: HCT-116 colon
HOP-62 NSCLC = tested on: HOP-62 NSCLC
LXFL 529 NSCLC = tested on: LXFL 529 NSCLC
TK-10 renal = tested on: TK-10 renal
HT29 colon = tested on: HT29 colon
K-562 leukemia = tested on: K-562 leukemia
UACC-62 melanoma = tested on: UACC-62 melanoma
SW-620 colon = tested on: SW-620 colon
SK-MEL-2 melanoma = tested on: SK-MEL-2 melanoma
DMS 114 small cell lung = tested on: DMS 114 small cell lung
EKVX NSCLC = tested on: EKVX NSCLC
HCT-15 colon = tested on: HCT-15 colon
OVCAR-8 ovarian = tested on: OVCAR-8 ovarian
UACC-257 melanoma = tested on: UACC-257 melanoma
XF 498 CNS = tested on: XF 498 CNS
SK-MEL-28 melanoma = tested on: SK-MEL-28 melanoma
LOX IMVI melanoma = tested on: LOX IMVI melanoma
SK-OV-3 ovarian = tested on: SK-OV-3 ovarian
SNB-19 CNS = tested on: SNB-19 CNS
KM20L2 colon = tested on: KM20L2 colon
KM12 colon = tested on: KM12 colon

Q: C[C@]12CC[C@H](OC3CCCCO3)CC1=CC[C@@H]1C2CC[C@]2(C)/C(=N/O)CCC12 (stereo partly specified) was tested. Which TGI (MOLT-4 leukemia) did it give?
A: The TGI was 48.9 µM.

Q: What about the TGI (OVCAR-3 ovarian) of the same compound?
A: Its TGI is 31.1 µM.

Q: And the TGI (NCI-H23 lung)?
A: The TGI was 39.1 µM.

Q: What about the TGI (U251 CNS) of the same compound?
A: The TGI was 40.4 µM.

Q: What about the TGI (HOP-18 NSCLC) of the same compound?
A: The TGI was 30.5 µM.

Q: And the TGI (ACHN renal)?
A: Its TGI is 54.3 µM.

Q: What about the TGI (NCI-H522 lung) of the same compound?
A: Its TGI is 31.1 µM.

Q: And the TGI (DLD-1 colon)?
A: The TGI was > 100 µM.

Q: And the TGI (NCI-H460 lung)?
A: Its TGI is 62.1 µM.

Q: What about the TGI (RXF 393 renal) of the same compound?
A: Its TGI is 44.8 µM.

Q: And the TGI (SF-295 CNS)?
A: Its TGI is 34.9 µM.

Q: And the TGI (DMS 273 small cell lung)?
A: The TGI was 51.8 µM.

Q: And the TGI (SNB-75 CNS)?
A: The TGI was 41.9 µM.

Q: And the TGI (M14 melanoma)?
A: The TGI was 63.9 µM.

Q: And the TGI (SK-MEL-5 melanoma)?
A: Its TGI is > 100 µM.

Q: What about the TGI (A498 renal) of the same compound?
A: The TGI was > 100 µM.

Q: And the TGI (OVCAR-4 ovarian)?
A: The TGI was 39 µM.

Q: What about the TGI (RPMI-8226 leukemia) of the same compound?
A: The TGI was 40 µM.

Q: What about the TGI (IGROV1 ovarian) of the same compound?
A: The TGI was > 100 µM.

Q: And the TGI (A549 NSCLC)?
A: The TGI was 34.9 µM.

Q: And the TGI (HCC-2998 colon)?
A: The TGI was 37.8 µM.

Q: What about the TGI (OVCAR-5 ovarian) of the same compound?
A: Its TGI is 75.6 µM.

Q: And the TGI (MALME-3M melanoma)?
A: Its TGI is 80.4 µM.

Q: What about the TGI (HOP-92 NSCLC) of the same compound?
A: The TGI was 46 µM.

Q: And the TGI (SNB-78 CNS)?
A: Its TGI is 64.4 µM.

Q: And the TGI (SN12C renal)?
A: Its TGI is 31.5 µM.

Q: And the TGI (CAKI-1 renal)?
A: The TGI was > 100 µM.

Q: What about the TGI (UO-31 renal) of the same compound?
A: The TGI was > 100 µM.

Q: What about the TGI (SF-539 CNS) of the same compound?
A: Its TGI is > 100 µM.

Q: And the TGI (786-0 renal)?
A: Its TGI is 55.8 µM.

Q: And the TGI (HCT-116 colon)?
A: The TGI was 29.6 µM.

Q: And the TGI (HOP-62 NSCLC)?
A: The TGI was > 100 µM.

Q: And the TGI (LXFL 529 NSCLC)?
A: The TGI was 45.6 µM.

Q: What about the TGI (TK-10 renal) of the same compound?
A: The TGI was 70.1 µM.

Q: What about the TGI (HT29 colon) of the same compound?
A: Its TGI is 26.8 µM.

Q: And the TGI (K-562 leukemia)?
A: The TGI was > 100 µM.

Q: What about the TGI (UACC-62 melanoma) of the same compound?
A: The TGI was > 100 µM.

Q: What about the TGI (SW-620 colon) of the same compound?
A: The TGI was > 100 µM.

Q: And the TGI (SK-MEL-2 melanoma)?
A: The TGI was 89.7 µM.

Q: And the TGI (DMS 114 small cell lung)?
A: The TGI was 37.9 µM.

Q: What about the TGI (EKVX NSCLC) of the same compound?
A: The TGI was 82.9 µM.

Q: And the TGI (HCT-15 colon)?
A: Its TGI is 44.5 µM.

Q: What about the TGI (OVCAR-8 ovarian) of the same compound?
A: The TGI was 40.5 µM.

Q: What about the TGI (UACC-257 melanoma) of the same compound?
A: Its TGI is 79.8 µM.

Q: And the TGI (XF 498 CNS)?
A: The TGI was 68.6 µM.

Q: What about the TGI (SK-MEL-28 melanoma) of the same compound?
A: The TGI was 54.3 µM.

Q: What about the TGI (LOX IMVI melanoma) of the same compound?
A: The TGI was 27.5 µM.

Q: And the TGI (SK-OV-3 ovarian)?
A: Its TGI is 82 µM.

Q: What about the TGI (SNB-19 CNS) of the same compound?
A: The TGI was 67.1 µM.

Q: What about the TGI (KM20L2 colon) of the same compound?
A: The TGI was 30.5 µM.

Q: What about the TGI (KM12 colon) of the same compound?
A: Its TGI is 32.4 µM.
